Measured values: US6022892A, “Bis-platinum complexes with polyamine ligands as antitumor agents” (Hoffman-La Roche Inc., priority 1998, dated 2000)

How the values were obtained:
A2780 = assay: cytotoxic effect in vitro on human ovarian carcinoma A2780; format: cell-based; settings: after 1 hour from the drug exposure
Method: (§1) The compounds of formula (I) were tested for their cytotoxic effect "in vitro" on various tumor cell lines, among which murine leukemia L1210, human ovarian carcinoma A2780 and the respective cisplatin resistant sublines L1210/CDDP and A2780/CDDP.
(§2) a) IC50 (concentration of the drug expressed as ([…] which causes a 50% inhibition of the cell growth) determined after 2 hours from the drug exposure.
(§3) d), e) IC50 determined after 1 hour from the drug exposure in the non resistant and in the resistant cell lines, receptively.

A2780/CDDP = assay: cytotoxic effect in vitro on cisplatin resistant subline A2780/CDDP; format: cell-based, human; settings: after 1 hour from the drug exposure, resistant line
Method: as §1, §2, §3

L1210/CDDP = assay: cytotoxic effect in vitro on cisplatin resistant subline L1210/CDDP; format: cell-based, murine; settings: after 72 hours from the drug exposure, resistant line
Method: as §1, §2
b), c) IC50 determined after 72 hours from the drug exposure in the non resistant and in the resistant cell lines, receptively.

L1210CDDP = assay: in vivo antitumor test, L1210/CDDP tumor cells inoculated ip in mouse; settings: ip 24, 120 and 216 hours after tumor inoculation
Method: In addition, the compounds of the invention were tested in an "in vivo" test in which L1210 and L1210/CDDP tumor cells are inoculated intraperitoneally (ip) in a mouse and the compound is administered ip 24, 120 and 216 hours after tumor inoculation.
% T/C=[(MST treated)/(MST control)]×100

[Cl-].[Cl-].[Cl-].[NH2][Pt+]([NH2])([Cl])[NH]CCCC[NH2+]CCC[NH][Pt+]([NH2])([NH2])[Cl] [Example 14, [trans-(PtCl(NH3)2)2-(-spermidine]Cl3]
A2780 IC50 1h (A2780): < 0.005 µg/mL
A2780/CDDP IC50 1h (A2780/CDDP): 0.13 µg/mL
L1210/CDDP IC50 72h (L1210/CDDP): 0.03 µg/mL

[trans-(PtCl(NH3)2)2 (-spermine]Cl4 [Example 16]
A2780 IC50 1h (A2780): < 0.005 µg/mL
T/C % (mean survival time treated/control) (L1210CDDP; 2 mg/kg): 172%

N.N.[Cl][Pt][Cl] [cisplatin, reference compound]
T/C % (mean survival time treated/control) (L1210CDDP; 6 mg/kg): 110%

[trans-(PtCl(NH3)2)2 H2 N--(CH2)6 --NH2 ](NO3)2 [reference compound]
L1210/CDDP IC50 72h (L1210/CDDP): 0.1 µg/mL
